Key:
S. aureus MLS 16,Em^R = assay: MIC of swalpamycin, agar plate test; assay type: cell-based, Staphylococcus aureus; settings: S. aureus MLS 16,Em^R (Em = erythromycin)
Text: (§1) The minimum inhibitory concentration (MIC) of swalpamycin has been determined for various microorganisms. The results are to be found in Table I which follows:
(§2) *Mac = macrolide, Em = erythromycin, Meth = methicillin

S. aureus 712 Meth^R = assay: MIC of swalpamycin, agar plate test; assay type: cell-based, Staphylococcus aureus; settings: S. aureus 712 Meth^R (Meth = methicillin)
Text: as §1, §2

S. aureus R85/M, Em^R = assay: MIC of swalpamycin, agar plate test; assay type: cell-based, Staphylococcus aureus; settings: Em^R (Em = erythromycin)
Text: as §1, §2

S. aureus MLS 14,Em^R = assay: MIC of swalpamycin, agar plate test; assay type: cell-based, Staphylococcus aureus; settings: S. aureus MLS 14,Em^R (Em = erythromycin)
Text: as §1, §2

S. aureus 20424 Mac^R = assay: MIC of swalpamycin, agar plate test; assay type: cell-based, Staphylococcus aureus; settings: S. aureus 20424 Mac^R (Mac = macrolide)
Text: as §1, §2

S. aureus 3066 Meth.^R = assay: MIC of swalpamycin, agar plate test; assay type: cell-based, Staphylococcus aureus; settings: S. aureus 3066 Meth.^R (Meth = methicillin)
Text: as §1, §2

S. aureus R 85,Em^R = assay: MIC of swalpamycin, agar plate test; assay type: cell-based, Staphylococcus aureus; settings: S. aureus R 85,Em^R (Em = erythromycin)
Text: as §1, §2

S. aureus 789 Meth.^R = assay: MIC of swalpamycin, agar plate test; assay type: cell-based, Staphylococcus aureus; settings: S. aureus 789 Meth.^R (Meth = methicillin)
Text: as §1, §2

S. aureus MLS 11,Em^R = assay: MIC of swalpamycin, agar plate test; assay type: cell-based, Staphylococcus aureus; settings: S. aureus MLS 11,Em^R (Em = erythromycin)
Text: as §1, §2

[1] = system: Strept. faecalis Eder:Mac^R; assay: MIC of swalpamycin, agar plate test; assay type: cell-based, Streptococcus faecalis; settings: Strept. faecalis Eder:Mac^R (Mac = macrolide)
Text: as §1, §2

Streptococcus faecalis = assay: laboratory agar plate tests, antimicrobial spectrum; assay type: cell-based; settings: sensitive and resistant strains of Streptococcus faecalis
Text: (§3) The minimum inhibitory concentration (MIC) of swalpamycin has been determined for various microorganisms.

Sarcina lutea [2] = assay: as above; assay type: cell-based; settings: strains of Sarcina lutea
Text: as §3

Bacillus subtilis [3] = assay: as above; assay type: cell-based; settings: strains of Bacillus subtilis
Text: as §3

Mycoplasma pulmonis = assay: as above; assay type: cell-based; settings: strains of Mycoplasma pulmonis
Text: as §3

Streptococcus pyogenes = assay: as above; assay type: cell-based; settings: strains of Streptococcus pyogenes
Text: as §3

Staphylococcus aureus = assay: as above; assay type: cell-based; settings: sensitive and resistant strains of Staphylococcus aureus
Text: as §3

Mycoplasma gallinarum = assay: as above; assay type: cell-based; settings: strains of Mycoplasma gallinarum
Text: as §3

Micrococcus luteus [4] = assay: as above; assay type: cell-based; settings: strains of Micrococcus luteus
Text: as §3

Strept. faecalis UD 86 = assay: MIC of swalpamycin, agar plate test; assay type: cell-based, Streptococcus faecalis
Text: as §3

S. aureus 209P = assay: MIC of swalpamycin, agar plate test; assay type: cell-based, Staphylococcus aureus
Text: as §3

[5] = system: Gram-positive bacteria, including erythromycin-resistant strains; assay: antibacterial activity; assay type: cell-based
Text: as §3

mycoplasma = assay: antimycoplasma activity; assay type: cell-based
Text: as §3

solubility = assay type: physicochemical
Text: Swalpamycin is a colorless amorphous powder which is soluble in methanol, ethanol, n-propanol, isopropanol, n-butanol, ethyl acetate, n-butyl acetate, acetone, ethyl methyl ketone, methyl isobutyl ketone, methylene chloride, chloroform, dimethylformamide and dimethyl sulfoxide.

Sarcina lutea [6] = assay: MIC of swalpamycin, agar plate test; assay type: cell-based
Text: as §3

Cit. freundii = assay: MIC of swalpamycin, agar plate test; assay type: cell-based
Text: as §3

Bacillus subtilis [7] = assay: MIC of swalpamycin, agar plate test; assay type: cell-based
Text: as §3

E. coli ESS 2231 = assay: MIC of swalpamycin, agar plate test; assay type: cell-based
Text: as §3

Ps. aeruginosa M 35 = assay: MIC of swalpamycin, agar plate test; assay type: cell-based
Text: as §3

E. coli 9632 = assay: MIC of swalpamycin, agar plate test; assay type: cell-based
Text: as §3

Ent. cloacae = assay: MIC of swalpamycin, agar plate test; assay type: cell-based
Text: as §3

Candida albicans = assay: MIC of swalpamycin, agar plate test; assay type: cell-based
Text: as §3

Pr. vulgaris = assay: MIC of swalpamycin, agar plate test; assay type: cell-based
Text: as §3

Micrococcus luteus [8] = assay: MIC of swalpamycin, agar plate test; assay type: cell-based
Text: as §3

Prov. stuartii = assay: MIC of swalpamycin, agar plate test; assay type: cell-based
Text: as §3

COC1C(OCC2/C=C/C=C/C(=O)C(C)CC(C)C(OC3OC(C)CC4(OC(=O)OC4C)C3O)C(C)/C=C/C(=O)OC2C)OC(C)C(O)C1OC (stereo not drawn) [Swalpamycin, swalpamycin]
minimum inhibitory concentration (MIC) (S. aureus MLS 16,Em^R): 12.5 | minimum inhibitory concentration (MIC) (S. aureus 712 Meth^R): 12.5 | minimum inhibitory concentration (MIC) (S. aureus R85/M, Em^R): > 50 | minimum inhibitory concentration (MIC) (S. aureus MLS 14,Em^R): 25 | minimum inhibitory concentration (MIC) (S. aureus 20424 Mac^R): 50 | minimum inhibitory concentration (MIC) (S. aureus 3066 Meth.^R): 3.2 | minimum inhibitory concentration (MIC) (S. aureus R 85,Em^R): 12.5 | minimum inhibitory concentration (MIC) (S. aureus 789 Meth.^R): > 50 | minimum inhibitory concentration (MIC) (S. aureus MLS 11,Em^R): 25 | minimum inhibitory concentration (MIC) [1]: > 50 | antimicrobial activity in vitro (Streptococcus faecalis): acts in vitro against sensitive and resistant strains | antimicrobial activity in vitro (Sarcina lutea [2]): acts in vitro | antimicrobial activity in vitro (Bacillus subtilis [3]): acts in vitro | antimicrobial activity in vitro (Mycoplasma pulmonis): acts in vitro | antimicrobial activity in vitro (Streptococcus pyogenes): acts in vitro | antimicrobial activity in vitro (Staphylococcus aureus): acts in vitro against sensitive and resistant strains | antimicrobial activity in vitro (Mycoplasma gallinarum): acts in vitro | antimicrobial activity in vitro (Micrococcus luteus [4]): acts in vitro | minimum inhibitory concentration (MIC) (Strept. faecalis UD 86): > 50 | minimum inhibitory concentration (MIC) (S. aureus 209P): 6.3 | activity [5]: active | activity (mycoplasma): active | solubility in hexane and petroleum ether (solubility; hexane, petroleum ether (40°-60°)): sparingly soluble or insoluble | solubility in organic solvents (solubility; methanol, ethanol, n-propanol, isopropanol, n-butanol, ethyl acetate, n-butyl acetate, acetone, ethyl methyl ketone, methyl isobutyl ketone, methylene chloride, chloroform, dimethylformamide, dimethyl sulfoxide): soluble | solubility in water (solubility; water): sparingly soluble or insoluble | minimum inhibitory concentration (MIC) (Sarcina lutea [6]): 0.2 | minimum inhibitory concentration (MIC) (Cit. freundii): > 50 | minimum inhibitory concentration (MIC) (Bacillus subtilis [7]): 0.1 | minimum inhibitory concentration (MIC) (E. coli ESS 2231): > 50 | minimum inhibitory concentration (MIC) (Ps. aeruginosa M 35): > 50 | minimum inhibitory concentration (MIC) (E. coli 9632): > 50 | minimum inhibitory concentration (MIC) (Ent. cloacae): > 50 | minimum inhibitory concentration (MIC) (Candida albicans): > 50 | minimum inhibitory concentration (MIC) (Pr. vulgaris): > 50 | minimum inhibitory concentration (MIC) (Micrococcus luteus [8]): 1.6 | minimum inhibitory concentration (MIC) (Prov. stuartii): > 50

— patent US4988677A, “Macrolide antibiotic and its use as a medicinal agent” (Hoechst Aktiengesellschaft, priority 1986, dated 1991)
